ChEMBL document CHEMBL1268923, “Identification of 9-fluoro substituted (-)-cytisine derivatives as ligands with high affinity for nicotinic receptors” (Bioorg Med Chem Lett, 2010)

Tests used:
[1] = target: Neuronal acetylcholine receptor; alpha4/beta2 (Rattus norvegicus, UniProt P09483+P12390); assay: Displacement of [3H]cytisine from rat alpha4beta2 nAChR in rat brain cell membrane; assay type: cell membranes
[2] = target: Neuronal acetylcholine receptor subunit alpha-7 (Rattus norvegicus, UniProt Q05941); assay: Displacement of [125I]alpha-Bungarotoxin from alpha7 nAchR in rat brain cell membrane; assay type: cell membranes
Sequence of Neuronal acetylcholine receptor subunit alpha-7 (Q05941 whole entry): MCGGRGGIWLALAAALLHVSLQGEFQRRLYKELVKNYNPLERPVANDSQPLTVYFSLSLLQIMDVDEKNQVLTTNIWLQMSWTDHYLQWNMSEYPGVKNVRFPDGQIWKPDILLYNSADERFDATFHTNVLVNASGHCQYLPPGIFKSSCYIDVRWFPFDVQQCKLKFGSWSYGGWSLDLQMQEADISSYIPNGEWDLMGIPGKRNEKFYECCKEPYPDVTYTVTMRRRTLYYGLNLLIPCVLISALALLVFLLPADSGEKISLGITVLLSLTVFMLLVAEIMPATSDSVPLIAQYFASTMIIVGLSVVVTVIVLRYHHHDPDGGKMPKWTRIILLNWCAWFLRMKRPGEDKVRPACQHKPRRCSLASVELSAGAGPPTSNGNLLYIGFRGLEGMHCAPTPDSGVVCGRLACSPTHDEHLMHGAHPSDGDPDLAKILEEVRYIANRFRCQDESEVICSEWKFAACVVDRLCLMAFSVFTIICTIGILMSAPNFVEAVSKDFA

Sequence of Neuronal acetylcholine receptor; alpha4/beta2 (P09483 whole entry): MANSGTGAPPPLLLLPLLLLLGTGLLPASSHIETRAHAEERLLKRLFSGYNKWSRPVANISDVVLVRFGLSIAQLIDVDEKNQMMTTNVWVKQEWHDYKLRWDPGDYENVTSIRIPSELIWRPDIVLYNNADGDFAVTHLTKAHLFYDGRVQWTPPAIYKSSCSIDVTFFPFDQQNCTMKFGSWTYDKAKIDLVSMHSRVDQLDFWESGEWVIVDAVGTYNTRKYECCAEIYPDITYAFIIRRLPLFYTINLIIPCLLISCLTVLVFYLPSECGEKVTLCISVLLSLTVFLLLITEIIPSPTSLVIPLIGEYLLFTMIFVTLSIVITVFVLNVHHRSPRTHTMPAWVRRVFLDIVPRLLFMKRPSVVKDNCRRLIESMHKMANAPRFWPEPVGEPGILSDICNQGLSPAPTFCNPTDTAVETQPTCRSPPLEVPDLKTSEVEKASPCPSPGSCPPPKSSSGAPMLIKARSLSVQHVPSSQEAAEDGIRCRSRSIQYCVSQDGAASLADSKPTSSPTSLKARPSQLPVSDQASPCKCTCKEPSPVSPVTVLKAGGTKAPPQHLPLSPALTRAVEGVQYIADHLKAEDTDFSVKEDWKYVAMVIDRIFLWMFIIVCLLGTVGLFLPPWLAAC
Sequence of Neuronal acetylcholine receptor; alpha4/beta2 (P12390 whole entry): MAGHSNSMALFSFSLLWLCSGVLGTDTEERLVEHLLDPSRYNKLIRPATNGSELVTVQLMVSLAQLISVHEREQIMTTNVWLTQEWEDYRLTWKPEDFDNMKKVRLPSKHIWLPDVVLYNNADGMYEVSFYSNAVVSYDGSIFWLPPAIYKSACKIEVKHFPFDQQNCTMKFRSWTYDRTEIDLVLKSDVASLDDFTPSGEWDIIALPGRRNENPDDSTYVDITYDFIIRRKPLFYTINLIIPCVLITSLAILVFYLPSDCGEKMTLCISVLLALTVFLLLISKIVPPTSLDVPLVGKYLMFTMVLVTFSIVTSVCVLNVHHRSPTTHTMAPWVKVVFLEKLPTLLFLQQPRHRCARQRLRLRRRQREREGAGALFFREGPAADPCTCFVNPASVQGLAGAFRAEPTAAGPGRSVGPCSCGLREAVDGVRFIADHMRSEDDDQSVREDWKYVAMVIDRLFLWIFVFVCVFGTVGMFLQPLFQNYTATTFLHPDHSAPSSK

For `O=c1c(F)ccc2n1C[C@@H]1CNC[C@H]2C1`, the Ki [1] was 6.53 nM.
`O=c1c(C(F)(F)F)ccc2n1C[C@@H]1CNC[C@H]2C1` showed a Ki [2] of 1000 nM and a Ki [1] of 0.22 nM.
Compound `Cc1ccc2n(c1=O)C[C@@H]1CNC[C@H]2C1` has a Ki [2] of 2000 nM and a Ki [1] of 0.24 nM.
`O=c1cccc2n1C[C@@H]1C[C@@H]2CN(I)C1` was tested, and the Ki [2] was 2000 nM and the Ki [1] was 0.165 nM.
Compound `O=c1c(Br)ccc2n1C[C@@H]1CNC[C@H]2C1` has a Ki [2] of 401 nM and a Ki [1] of 0.116 nM.
`O=c1cccc2n1C[C@@H]1C[C@@H]2CN(Br)C1` showed a Ki [2] of 112 nM and a Ki [1] of 0.208 nM.
Compound `O=c1cccc2n1C[C@@H]1CNC[C@H]2C1` [CYTISINICLINE] has a Ki [2] of 1000 nM and a Ki [1] of 1.06 nM.
